According to ChEMBL document CHEMBL4665710, “Myrcaulones A-C, Unusual Rearranged Triketone-Terpene Adducts from Myrciariacauliflora” (J Nat Prod, 2020):
Activity calls are given as the source filed them. The calls are words filed in the database; no cut-off is given here.

Columns and labels:
RAW264.7 [1] = test: Cytotoxicity against mouse RAW 264.7 cells assessed as reduction in cell viability by MTT assay; format: cell-based
RAW264.7 [2] = test: Anti-inflammatory activity in mouse RAW 264.7 cells assessed as reduction in LPS-induced nitric oxide production preincubated for 2 hrs followed by LPS-stimulation measured after 24 hrs by Griess reagent method; format: functional, cell-based; settings: time 26.0 hrs
RAW264.7 [3] = test: Anti-inflammatory activity in mouse RAW 264.7 cells assessed as reduction in LPS-induced TNF-alpha production at 7 uM preincubated for 2 hrs followed by LPS-stimulation measured after 24 hrs by ELISA; format: functional, cell-based; settings: time 26.0 hrs
RAW264.7 [4] = test: Anti-inflammatory activity in mouse RAW 264.7 cells assessed as reduction in LPS-induced TNF-alpha production preincubated for 2 hrs followed by LPS-stimulation measured after 24 hrs by ELISA; format: functional, cell-based; settings: time 26.0 hrs
RAW264.7 [5] = test: Anti-inflammatory activity in mouse RAW 264.7 cells assessed as reduction in LPS-induced nitric oxide production at 7 uM preincubated for 2 hrs followed by LPS-stimulation measured after 24 hrs by Griess reagent method; format: functional, cell-based; settings: time 26.0 hrs

Compound	Activity (RAW264.7 [1])	Activity (RAW264.7 [2])	Activity (RAW264.7 [3])	Activity (RAW264.7 [4])	Activity (RAW264.7 [5])
CC[C@H](C)[C@H]1C[C@@]2(CC[C@H]3C[C@@H]2C3(C)C)OC2=C1C(=O)[C@](OC)(C(C)=O)C2	Non-Toxic	Dose-dependent effect	Active	Dose-dependent effect	Active
CO[C@@]1(C(C)=O)CC2=C(C1=O)[C@H](C(C)C)C[C@@]1(CC[C@H]3C[C@@H]1C3(C)C)O2	Non-Toxic	Dose-dependent effect	Active	Dose-dependent effect	Active
